Test results as given in patent US12281121B2, “N-containing heteroaryl derivative and pharmaceutical composition comprising same as active ingredient for prevention or treatment of cancer” (VORONOI Inc., priority 2019, dated 2025).

How the values were obtained:
Experiment in all cases: ScanMAX Kinase analysis panel (DiscoverX)
Type in all cases: binding
[1] = molecular target: T1, ABL1(Q252H)-phosphorylated (Homo sapiens, UniProt P00519, Q252H); details: read-out: adjusted percentage (% control)
T1 construct: purchased DiscoverX
Procedure: (§1) The following experiment was performed in order to evaluate the inhibitory activity of the compound according to the present invention against more enzymes. Specifically, for Examples 1 and 3 selected among the Example compounds of the present invention, the enzyme (kinase) selectivity was set to be measured by commissioning DiscoverX, and an experiment was conducted using a ScanMAX™ Kinase analysis panel. In this case, the concentration of the drug treated with the enzyme was set to 1 μM in DMSO, the adjusted percentage (% control) was determined in the same manner as in the following Equation 1, and the results are shown in the following Table 3. (Example compound−Positive control)/(Negative control−Positive control)×100 [Equation 1]
(§2) In addition, the enzyme selectivity of the present invention was determined to be active against the corresponding enzyme when the adjusted percentage was <35% (that is, less than 35%).

[2] = molecular target: T2, ABL1(T315I)-nonphosphorylated (Homo sapiens, UniProt P00519, T315I); details: read-out: adjusted percentage (% control)
T2 construct: purchased DiscoverX
Procedure: as §1, §2

ABL1-phosphorylated = molecular target: T3, ABL1-phosphorylated (Homo sapiens, UniProt P00519); details: read-out: adjusted percentage (% control)
T3 construct: purchased DiscoverX
Procedure: as §1, §2

AMPK-alpha1 = molecular target: T4, AMPK-alpha1 (Homo sapiens, UniProt Q13131); details: read-out: adjusted percentage (% control)
T4 construct: purchased DiscoverX
Procedure: as §1, §2

AURKA = molecular target: T5, AURKA (Homo sapiens, UniProt O14965); details: read-out: adjusted percentage (% control)
T5 construct: purchased DiscoverX
Procedure: as §1, §2

AXL = molecular target: T6, AXL (Homo sapiens, UniProt P30530); details: read-out: adjusted percentage (% control)
T6 construct: purchased DiscoverX
Procedure: as §1, §2

BTK = molecular target: T7, BTK (Homo sapiens, UniProt Q06187); details: read-out: adjusted percentage (% control)
T7 construct: purchased DiscoverX
Procedure: as §1, §2

CSNK2A1 = molecular target: T8, CSNK2A1 (Homo sapiens, UniProt P68400); details: read-out: adjusted percentage (% control)
T8 construct: purchased DiscoverX
Procedure: as §1, §2

DAPK3 = molecular target: T9, DAPK3 (Homo sapiens, UniProt O43293); details: read-out: adjusted percentage (% control)
T9 construct: purchased DiscoverX
Procedure: as §1, §2

DDR1 = molecular target: T10, DDR1 (Homo sapiens, UniProt Q08345); details: read-out: adjusted percentage (% control)
T10 construct: purchased DiscoverX
Procedure: as §1, §2

DLK = molecular target: T11, DLK (Homo sapiens, UniProt Q12852); details: read-out: adjusted percentage (% control)
T11 construct: purchased DiscoverX
Procedure: as §1, §2

EPHB6 = molecular target: T12, EPHB6 (Homo sapiens, UniProt O15197); details: read-out: adjusted percentage (% control)
T12 construct: purchased DiscoverX ScanMAX Kinase analysis panel
Procedure: as §1, §2

FLT3(D835H) = molecular target: T13, FLT3(D835H) (Homo sapiens, UniProt P36888, D835H); details: read-out: adjusted percentage (% control)
T13 construct: purchased DiscoverX ScanMAX Kinase analysis panel
Procedure: as §1, §2

FLT3(D835Y) = molecular target: T14, FLT3(D835Y) (Homo sapiens, UniProt P36888, D835Y); details: read-out: adjusted percentage (% control)
T14 construct: purchased DiscoverX ScanMAX Kinase analysis panel
Procedure: as §1, §2

FLT3(ITD) = details: 1 μM
Procedure: as §1, §2

FLT3(ITD, D835V) = details: 1 μM
Procedure: as §1, §2

FLT3(ITD, F691L) = details: 1 μM
Procedure: as §1, §2

FLT3(K663Q) = molecular target: T15, FLT3(K663Q) (Homo sapiens, UniProt P36888, K663Q); details: read-out: adjusted percentage (% control)
T15 construct: purchased DiscoverX ScanMAX Kinase analysis panel
Procedure: as §1, §2

FLT3(R834Q) = molecular target: T16, FLT3(R834Q) (Homo sapiens, UniProt P36888, R834Q); details: read-out: adjusted percentage (% control)
T16 construct: purchased DiscoverX ScanMAX Kinase analysis panel
Procedure: as §1, §2

GCN2(Kin.Dom.2, S808G) = molecular target: T17, GCN2(Kin.Dom.2, S808G) (Homo sapiens, UniProt Q9P2K8, S808G); details: read-out: adjusted percentage (% control)
T17 construct: GCN2(Kin.Dom.2,S808G); purchased DiscoverX ScanMAX Kinase analysis panel
Procedure: as §1, §2

HCK = molecular target: T18, HCK (Homo sapiens, UniProt P08631); details: read-out: adjusted percentage (% control)
T18 construct: purchased DiscoverX ScanMAX Kinase analysis panel
Procedure: as §1, §2

ITK = molecular target: T19, ITK (Homo sapiens, UniProt Q08881); details: read-out: adjusted percentage (% control)
T19 construct: purchased DiscoverX ScanMAX Kinase analysis panel
Procedure: as §1, §2

[3] = molecular target: T20, JAK1(JH1domain-catalytic) (Homo sapiens, UniProt P23458); details: read-out: adjusted percentage (% control)
T20 construct: JAK1(JH1domain-catalytic); purchased DiscoverX ScanMAX Kinase analysis panel
Procedure: as §1, §2

[4] = molecular target: T21, JAK1(JH2domain-pseudokinase) (Homo sapiens, UniProt P23458); details: read-out: adjusted percentage (% control)
T21 construct: JAK1(JH2domain-pseudokinase); purchased DiscoverX ScanMAX Kinase analysis panel
Procedure: as §1, §2

KIT(A829P) = molecular target: T22, KIT(A829P) (Homo sapiens, UniProt P10721, A829P); details: read-out: adjusted percentage (% control)
T22 construct: purchased DiscoverX ScanMAX Kinase analysis panel
Procedure: as §1, §2

MAP3K2 = molecular target: T23, MAP3K2 (Homo sapiens, UniProt Q9Y2U5); details: read-out: adjusted percentage (% control)
T23 construct: purchased DiscoverX ScanMAX Kinase analysis panel
Procedure: as §1, §2

MEK2 = molecular target: T24, MEK2 (Homo sapiens, UniProt P36507); details: read-out: adjusted percentage (% control)
T24 construct: purchased DiscoverX ScanMAX Kinase analysis panel
Procedure: as §1, §2

MEK5 = molecular target: T25, MEK5 (Homo sapiens, UniProt Q13163); details: read-out: adjusted percentage (% control)
T25 construct: purchased DiscoverX ScanMAX Kinase analysis panel
Procedure: as §1, §2

MERTK = molecular target: T26, MERTK (Homo sapiens, UniProt Q12866); details: read-out: adjusted percentage (% control)
T26 construct: purchased DiscoverX ScanMAX Kinase analysis panel
Procedure: as §1, §2

MST1 = molecular target: T27, MST1 (Homo sapiens, UniProt Q13043); details: read-out: adjusted percentage (% control)
T27 construct: purchased DiscoverX ScanMAX Kinase analysis panel
Procedure: as §1, §2

PDGFRB = molecular target: T28, PDGFRB (Homo sapiens, UniProt P09619); details: read-out: adjusted percentage (% control)
T28 construct: purchased DiscoverX ScanMAX Kinase analysis panel
Procedure: as §1, §2

SNARK = molecular target: T29, SNARK (Homo sapiens, UniProt Q9H093); details: read-out: adjusted percentage (% control)
T29 construct: purchased DiscoverX ScanMAX Kinase analysis panel
Procedure: as §1, §2

TRKA = molecular target: T30, TRKA (Homo sapiens, UniProt P04629); details: read-out: adjusted percentage (% control)
T30 construct: purchased DiscoverX ScanMAX Kinase analysis panel
Procedure: as §1, §2

[5] = molecular target: T31, TYK2(JH1domain-catalytic) (Homo sapiens, UniProt P29597); details: read-out: adjusted percentage (% control)
T31 construct: TYK2(JH1domain-catalytic); purchased DiscoverX ScanMAX Kinase analysis panel
Procedure: as §1, §2

YES = molecular target: T32, YES (Homo sapiens, UniProt P07947); details: read-out: adjusted percentage (% control)
T32 construct: purchased DiscoverX ScanMAX Kinase analysis panel
Procedure: as §1, §2

YSK4 = molecular target: T33, YSK4 (Homo sapiens, UniProt Q56UN5); details: read-out: adjusted percentage (% control)
T33 construct: purchased DiscoverX ScanMAX Kinase analysis panel
Procedure: as §1, §2

T24 sequence (P36507 whole entry): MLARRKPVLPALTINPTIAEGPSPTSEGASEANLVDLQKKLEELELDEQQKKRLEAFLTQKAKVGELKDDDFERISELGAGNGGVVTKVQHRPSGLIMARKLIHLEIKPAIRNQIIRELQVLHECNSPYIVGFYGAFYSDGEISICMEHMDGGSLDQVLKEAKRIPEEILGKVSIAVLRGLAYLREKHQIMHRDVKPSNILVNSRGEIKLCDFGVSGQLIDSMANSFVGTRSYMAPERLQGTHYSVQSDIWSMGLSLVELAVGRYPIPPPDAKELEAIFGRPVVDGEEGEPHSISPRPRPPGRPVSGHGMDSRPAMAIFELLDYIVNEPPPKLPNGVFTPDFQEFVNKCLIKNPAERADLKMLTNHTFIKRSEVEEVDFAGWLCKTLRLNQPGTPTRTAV
T30 sequence (P04629 33-796): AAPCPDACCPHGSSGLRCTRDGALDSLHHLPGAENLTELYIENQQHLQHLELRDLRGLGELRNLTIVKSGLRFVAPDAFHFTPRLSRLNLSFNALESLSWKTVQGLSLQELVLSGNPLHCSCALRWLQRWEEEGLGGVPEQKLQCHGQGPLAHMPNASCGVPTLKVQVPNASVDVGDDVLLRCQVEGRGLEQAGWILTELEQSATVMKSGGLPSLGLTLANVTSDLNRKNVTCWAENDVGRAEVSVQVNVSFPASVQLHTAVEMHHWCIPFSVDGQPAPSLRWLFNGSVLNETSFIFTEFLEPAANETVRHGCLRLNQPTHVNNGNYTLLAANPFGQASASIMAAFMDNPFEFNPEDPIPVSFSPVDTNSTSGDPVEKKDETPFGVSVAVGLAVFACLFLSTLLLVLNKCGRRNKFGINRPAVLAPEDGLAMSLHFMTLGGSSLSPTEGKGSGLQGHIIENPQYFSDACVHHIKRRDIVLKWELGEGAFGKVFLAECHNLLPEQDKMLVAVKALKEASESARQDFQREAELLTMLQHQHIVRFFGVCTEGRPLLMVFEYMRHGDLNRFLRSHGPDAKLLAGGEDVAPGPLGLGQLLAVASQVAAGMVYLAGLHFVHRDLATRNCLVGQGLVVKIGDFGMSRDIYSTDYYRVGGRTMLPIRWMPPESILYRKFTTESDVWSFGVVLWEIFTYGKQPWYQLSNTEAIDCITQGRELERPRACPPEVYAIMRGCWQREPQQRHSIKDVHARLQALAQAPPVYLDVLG
T5 sequence (O14965 whole entry): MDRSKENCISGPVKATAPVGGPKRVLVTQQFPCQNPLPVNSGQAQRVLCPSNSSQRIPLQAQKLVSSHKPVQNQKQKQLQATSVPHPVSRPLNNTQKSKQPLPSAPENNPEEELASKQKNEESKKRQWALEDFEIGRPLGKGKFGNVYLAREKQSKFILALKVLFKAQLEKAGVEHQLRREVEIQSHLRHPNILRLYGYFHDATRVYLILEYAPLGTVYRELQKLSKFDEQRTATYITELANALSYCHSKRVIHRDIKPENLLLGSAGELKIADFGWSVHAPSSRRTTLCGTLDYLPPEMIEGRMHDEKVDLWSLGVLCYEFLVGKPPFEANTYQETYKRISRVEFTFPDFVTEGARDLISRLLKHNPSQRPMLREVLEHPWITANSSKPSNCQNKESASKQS
T18 sequence (P08631 whole entry): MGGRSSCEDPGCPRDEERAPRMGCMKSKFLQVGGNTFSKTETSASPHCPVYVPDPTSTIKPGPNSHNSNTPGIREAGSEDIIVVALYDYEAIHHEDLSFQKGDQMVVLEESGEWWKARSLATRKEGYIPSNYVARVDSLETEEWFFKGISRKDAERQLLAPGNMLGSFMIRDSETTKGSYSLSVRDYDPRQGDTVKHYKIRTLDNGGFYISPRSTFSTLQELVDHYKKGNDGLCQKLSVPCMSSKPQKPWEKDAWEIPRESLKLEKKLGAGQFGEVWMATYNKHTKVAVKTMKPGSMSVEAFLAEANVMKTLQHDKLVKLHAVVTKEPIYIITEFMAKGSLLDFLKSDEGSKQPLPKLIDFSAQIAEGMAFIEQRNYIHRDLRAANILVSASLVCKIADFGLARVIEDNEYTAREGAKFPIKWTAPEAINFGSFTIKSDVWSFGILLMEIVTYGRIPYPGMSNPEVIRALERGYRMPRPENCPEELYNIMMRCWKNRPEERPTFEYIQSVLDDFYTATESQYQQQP
T25 sequence (Q13163 whole entry): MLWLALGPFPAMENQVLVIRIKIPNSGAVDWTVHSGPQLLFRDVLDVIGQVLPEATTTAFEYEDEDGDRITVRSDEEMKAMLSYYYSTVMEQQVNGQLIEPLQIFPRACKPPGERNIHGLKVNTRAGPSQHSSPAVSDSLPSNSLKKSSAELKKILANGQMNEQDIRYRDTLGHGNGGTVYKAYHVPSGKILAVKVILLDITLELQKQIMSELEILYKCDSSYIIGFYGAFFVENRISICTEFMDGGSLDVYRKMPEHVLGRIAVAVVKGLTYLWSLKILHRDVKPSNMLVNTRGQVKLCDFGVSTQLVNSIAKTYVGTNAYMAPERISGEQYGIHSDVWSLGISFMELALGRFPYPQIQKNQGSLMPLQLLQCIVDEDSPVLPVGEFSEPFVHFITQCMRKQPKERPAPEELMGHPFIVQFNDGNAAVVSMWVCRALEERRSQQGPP
T26 sequence (Q12866 21-999): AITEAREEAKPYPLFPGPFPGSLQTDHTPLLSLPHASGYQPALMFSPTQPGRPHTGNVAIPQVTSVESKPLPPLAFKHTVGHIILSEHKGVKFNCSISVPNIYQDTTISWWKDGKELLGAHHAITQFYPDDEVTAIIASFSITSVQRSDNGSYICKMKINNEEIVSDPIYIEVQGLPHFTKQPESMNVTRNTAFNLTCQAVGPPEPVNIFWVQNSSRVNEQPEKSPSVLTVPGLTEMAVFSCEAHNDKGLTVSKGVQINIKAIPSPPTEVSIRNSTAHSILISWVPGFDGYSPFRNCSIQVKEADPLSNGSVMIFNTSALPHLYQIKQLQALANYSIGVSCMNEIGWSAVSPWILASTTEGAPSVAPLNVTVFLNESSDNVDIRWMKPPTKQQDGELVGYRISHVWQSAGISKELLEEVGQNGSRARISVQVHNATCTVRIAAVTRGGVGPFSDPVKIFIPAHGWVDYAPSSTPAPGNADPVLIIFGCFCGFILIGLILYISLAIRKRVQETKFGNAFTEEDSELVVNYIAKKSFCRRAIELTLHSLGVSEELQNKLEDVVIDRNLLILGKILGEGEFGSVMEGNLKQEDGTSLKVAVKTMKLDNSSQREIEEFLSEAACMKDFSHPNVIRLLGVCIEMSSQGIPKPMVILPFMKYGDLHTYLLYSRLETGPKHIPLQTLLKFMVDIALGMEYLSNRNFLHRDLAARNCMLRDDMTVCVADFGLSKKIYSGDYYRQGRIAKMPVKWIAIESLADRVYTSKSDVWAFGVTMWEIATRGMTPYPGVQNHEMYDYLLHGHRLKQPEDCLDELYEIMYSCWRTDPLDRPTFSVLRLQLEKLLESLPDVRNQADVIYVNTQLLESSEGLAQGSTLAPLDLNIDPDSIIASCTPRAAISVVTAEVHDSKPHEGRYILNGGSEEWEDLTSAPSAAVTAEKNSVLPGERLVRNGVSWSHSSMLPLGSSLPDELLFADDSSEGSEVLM
T9 sequence (O43293 whole entry): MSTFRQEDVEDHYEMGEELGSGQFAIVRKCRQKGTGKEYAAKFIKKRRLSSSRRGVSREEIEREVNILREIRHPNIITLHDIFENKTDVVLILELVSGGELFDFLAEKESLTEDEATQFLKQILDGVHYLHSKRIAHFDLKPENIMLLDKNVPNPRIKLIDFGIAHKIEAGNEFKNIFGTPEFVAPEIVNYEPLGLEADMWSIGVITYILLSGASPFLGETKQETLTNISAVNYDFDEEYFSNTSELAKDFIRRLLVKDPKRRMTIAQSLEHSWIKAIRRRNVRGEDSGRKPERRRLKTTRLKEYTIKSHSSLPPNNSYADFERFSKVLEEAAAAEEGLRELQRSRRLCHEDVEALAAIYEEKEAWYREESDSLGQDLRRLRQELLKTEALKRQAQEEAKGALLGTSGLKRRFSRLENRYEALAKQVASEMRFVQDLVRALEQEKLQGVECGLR
T7 sequence (Q06187 whole entry): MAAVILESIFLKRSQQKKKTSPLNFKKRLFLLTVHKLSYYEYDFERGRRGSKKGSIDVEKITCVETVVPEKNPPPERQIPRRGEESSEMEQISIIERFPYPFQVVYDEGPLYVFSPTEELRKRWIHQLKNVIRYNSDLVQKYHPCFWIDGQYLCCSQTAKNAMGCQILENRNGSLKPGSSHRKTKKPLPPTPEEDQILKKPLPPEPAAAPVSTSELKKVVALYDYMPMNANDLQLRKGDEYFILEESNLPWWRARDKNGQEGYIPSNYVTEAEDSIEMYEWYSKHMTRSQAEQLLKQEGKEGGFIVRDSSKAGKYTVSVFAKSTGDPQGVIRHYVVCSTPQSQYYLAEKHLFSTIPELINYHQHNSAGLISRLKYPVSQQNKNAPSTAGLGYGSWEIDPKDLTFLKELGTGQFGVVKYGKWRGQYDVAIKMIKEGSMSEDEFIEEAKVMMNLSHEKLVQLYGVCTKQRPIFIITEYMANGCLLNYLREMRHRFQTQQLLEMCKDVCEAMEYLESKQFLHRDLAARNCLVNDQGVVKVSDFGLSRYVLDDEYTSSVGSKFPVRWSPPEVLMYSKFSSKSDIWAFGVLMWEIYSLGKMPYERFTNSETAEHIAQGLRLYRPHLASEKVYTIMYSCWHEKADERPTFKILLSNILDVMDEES
T20 sequence (P23458 875-1153 limits assumed): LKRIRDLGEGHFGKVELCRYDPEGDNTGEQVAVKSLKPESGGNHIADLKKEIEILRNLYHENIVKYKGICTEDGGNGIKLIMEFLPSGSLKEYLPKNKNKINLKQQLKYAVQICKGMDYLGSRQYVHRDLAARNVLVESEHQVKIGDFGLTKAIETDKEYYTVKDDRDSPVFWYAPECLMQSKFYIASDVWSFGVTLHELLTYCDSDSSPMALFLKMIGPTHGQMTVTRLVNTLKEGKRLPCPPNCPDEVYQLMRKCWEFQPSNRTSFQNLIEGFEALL

Compound	remaining binding at 1 µM [1] [%]	remaining binding at 1 µM [2] [%]	remaining binding at 1 µM (ABL1-phosphorylated) [%]	remaining binding at 1 µM (AMPK-alpha1) [%]	remaining binding at 1 µM (AURKA) [%]	remaining binding at 1 µM (AXL) [%]	remaining binding at 1 µM (BTK) [%]	remaining binding at 1 µM (CSNK2A1) [%]	remaining binding at 1 µM (DAPK3) [%]	remaining binding at 1 µM (DDR1) [%]	remaining binding at 1 µM (DLK) [%]	remaining binding at 1 µM (EPHB6) [%]	remaining binding at 1 µM (FLT3(D835H)) [%]	remaining binding at 1 µM (FLT3(D835Y)) [%]	adjusted percentage (% control) (FLT3(ITD)) [%]	adjusted percentage (% control) (FLT3(ITD, D835V)) [%]	adjusted percentage (% control) (FLT3(ITD, F691L)) [%]	remaining binding at 1 µM (FLT3(K663Q)) [%]	remaining binding at 1 µM (FLT3(R834Q)) [%]	remaining binding at 1 µM (GCN2(Kin.Dom.2, S808G)) [%]	also measured
COc1ccc(CN2C3CC2CN(c2ccc(-c4nc(Nc5cc(C)[nH]n5)c5occc5n4)cn2)C3)cn1 [Example 1, 2-(6-(6-((6-methoxypyridin-3-yl)methyl)-3,6-diazabicyclo[3.1.1]heptan-3-yl)pyridin-3-yl)-N-(5-methyl-1H-pyrazol-3-yl)furo[3,2-d]pyrimidin-4-amine]	15	20	30	26	4.1	1.2	17	2.4	19	25	29	2.6	6.7	1.5	4.9	0	1.4	2.2	23	8	remaining binding at 1 µM (HCK): 4.1%; remaining binding at 1 µM (ITK): 2%; remaining binding at 1 µM [3]: 15%; remaining binding at 1 µM [4]: 21%; remaining binding at 1 µM (KIT(A829P)): 2.8%; remaining binding at 1 µM (MAP3K2): 27%; remaining binding at 1 µM (MEK2): 24%; remaining binding at 1 µM (MEK5): 9.9%; remaining binding at 1 µM (MERTK): 34%; remaining binding at 1 µM (MST1): 25%; remaining binding at 1 µM (PDGFRB): 15%; remaining binding at 1 µM (SNARK): 22%; remaining binding at 1 µM (TRKA): 0%; remaining binding at 1 µM [5]: 0.2%; remaining binding at 1 µM (YES): 11%; remaining binding at 1 µM (YSK4): 6.2%
COc1ccc(CN2C3CC2CN(c2ccc(-c4nc(Nc5cc(C)[nH]n5)c5ccccc5n4)cn2)C3)cn1 [Example 3, 2-(6-(6-((6-methoxypyridin-3-yl)methyl)-3,6-diazabicyclo [3.1.1]heptan-3-yl)pyridin-3-yl)-N-(5-methyl-1H-pyrazol-3-yl)quinazolin-4-amine]	17	2.9	15	33	2.2	0	16	1.5	34	12	19	4.8	2.7	0.55	1.2	0	8.8	0.1	9.1	0.2	remaining binding at 1 µM (HCK): 3.2%; remaining binding at 1 µM (ITK): 1.6%; remaining binding at 1 µM [3]: 9.7%; remaining binding at 1 µM [4]: 2.9%; remaining binding at 1 µM (KIT(A829P)): 11%; remaining binding at 1 µM (MAP3K2): 7.4%; remaining binding at 1 µM (MEK2): 17%; remaining binding at 1 µM (MEK5): 2.2%; remaining binding at 1 µM (MERTK): 6.2%; remaining binding at 1 µM (MST1): 30%; remaining binding at 1 µM (PDGFRB): 2.7%; remaining binding at 1 µM (SNARK): 17%; remaining binding at 1 µM (TRKA): 0%; remaining binding at 1 µM [5]: 5.3%; remaining binding at 1 µM (YES): 3.8%; remaining binding at 1 µM (YSK4): 5%
